# Experimental data reported in patent publication US20230381327A1, “REACTIVE CONJUGATES” (DEBIOPHARM RESEARCH & MANUFACTURING S.A., priority 2020, published 2023).
# Residues, ends and D or L forms follow the SMILES beside them.
# Assays:
# trastuzumab = biological target: T1, trastuzumab (Homo sapiens, UniProt P01857, D239E/L241M); assay: Preparation of trastuzumab-payload conjugates in solution, HRMS analysis (DoC, Fc/F(ab)2 selectivity); conditions: 10 eq of peptide-payload conjugate
# T1 construct: purchased Roche Herceptin®
# Description: Deglycosylation of the conjugates was achieved by incubating 1 unit of Endo S per μg of conjugate in the formulation buffer (37° C.-1 hour).
# The average Degree of Conjugation (DoC) values were calculated using the HRMS data and the Equation 1 (Eq. 1) below.
# where I(DoCk) is the relative peak intensity of conjugates with k add-on molecules per antibody.
# After payload conjugation, the reaction buffer was diluted with 64 μL of 0.1 M glycine pH 2.5. The antibody conjugate was then purified by gel filtration chromatography using a pre-equilibrated with 0.1 M glycine pH 2.5 Bio-spin P-30 Column (bed height: 3.7 cm, overall length: 5 cm; available from Bio-Rad, USA) and then eluted with 0.1M glycine pH 2.5. The purified antibody conjugate fractions were neutralized with 1M PBS pH 8.5 (10 μL).
# (§1) The conjugation of the payload moiety to trastuzumab was evaluated by HRMS analysis (as described above). The payload loading ratios (selectivity) between Fc and F(ab)2 were evaluated by digesting the conjugates with GingisKhan protease (1 unit per μg of antibody conjugate in the presence of 2 mM cysteine, 0.1M Tris, pH 8.0 for 1 hour at 37° C.), and subsequent HRMS analysis (as described above). The Degree of Conjugation (DoC) of the trastuzumab-payload conjugates was evaluated based on the results of the HRMS analysis (as described above).
# (§2) DoC Fc=DoC−DoC F(ab)2, Selectivity Fc/F(ab)2=(DoC−DoC F(ab)2)/Doc (Fab)2
# rituximab = biological target: T2, rituximab (Homo sapiens, UniProt P01857); assay: Antibody-payload conjugation, HRMS analysis (Example 12)
# T2 construct: purchased Roche RITUXAN®
# Description: To prepare the trastuzumab-payload conjugates, 2 eq of reactive conjugate prepared in Examples 5-8, 10 (2.4 nmol) in DMSO (2-7% v/v in final reaction mixture) was added to a solution of trastuzumab (1 eq, 1.2 nmol; commercial trastuzumab Herceptin® available from Roche which was buffer-exchanged into phosphate-buffered saline (PBS) prior to the conjugation) diluted in 50 mM NaHCO3 pH 9.0 (20-28 μL) and the reaction mixture (36 μL) was stirred at room temperature for 2 hours.
# as §1
# The propensity of the reactive conjugates of the present invention to react with different antibodies was evaluated using commercially available atezolizumab, rituximab, trastuzumab emtansine, brentuximab-vedotin, aflibercept, panitumumab, pembrolizumab and Fc region only. Antibody-DOTA/FITC conjugates were prepared according to the same procedure as described in Example 11 above using peptide conjugates (indicated in Table 19) and the aforementioned antibodies.
# as §2
# Fc region of trastuzumab = Fc region of trastuzumab (Homo sapiens, UniProt P01857); assay: Competitive FP binding assay against Fc-III-FAM
# Description: All sample preparations were done in PBS pH 7.0 containing 0.05% Tween. Each experiment was performed in triplicate.
smiles,measurement,setting,value
"O=C(OCCOCCNC(=S)Nc1ccc2c(c1)C(=O)OC21c2ccc(O)cc2Oc2cc(O)ccc21)Oc1ccc(C(=O)O)cc1 [Carbonate-FITC, 4-[2-[2-[(3′,6′-dihydroxy-3-oxo-spiro [isobenzofuran-1,9′-xanthene]-5-yl)carbamothioylamino]ethoxy]ethoxycarbonyloxy]benzoic acid]",DoC,trastuzumab,0.83
same,DoC F(ab)2,trastuzumab,0.54
same,DoC Fc,trastuzumab,0.29
same,Labeled mAb (%),trastuzumab,59%
same,Selectivity Fc/F(ab)2,trastuzumab,0.5
same,DoC F(ab)2,rituximab,0.20
same,Selectivity Fc/F(ab)2,rituximab,3.2
same,DoC,rituximab; procedure of Example 11,0.84
same,Labeled mAb (%),rituximab; procedure of Example 11,59%
same,DoC Fc,rituximab; some values extrapolated as DoC − DoC F(ab)2,0.64
"CC(=O)N[C@@H](CC(=O)O)C(=O)N[C@H]1CSSC[C@@H](C(=O)N[C@H](C(N)=O)[C@@H](C)O)NC(=O)[C@H](Cc2c[nH]c3ccccc23)NC(=O)[C@H](C(C)C)NC(=O)[C@H](CC(C)C)NC(=O)[C@H](CCC(=O)O)NC(=O)CNC(=O)[C@H](CC(C)C)NC(=O)[C@H](Cc2c[nH]cn2)NC(=O)[C@H](Cc2c[nH]c3ccccc23)NC(=O)[C@H](CCCCN)NC1=O [Compound A3K] (HELM PEPTIDE1{[ac].D.C.K.W.H.L.G.E.L.V.W.C.T.[am]}$PEPTIDE1,PEPTIDE1,3:R3-13:R3$$$V2.0)",binding to the Fc region of trastuzumab compared to Fc-III (in words),Fc region of trastuzumab,moderate binding efficiency
"CC(=O)N[C@@H](CC(=O)O)C(=O)N[C@H]1CSSC[C@@H](C(=O)N[C@H](C(N)=O)[C@@H](C)O)NC(=O)[C@H](Cc2c[nH]c3ccccc23)NC(=O)[C@H](C(C)C)NC(=O)[C@H](CC(C)C)NC(=O)[C@H](CCC(=O)O)NC(=O)CNC(=O)[C@H](CC(C)C)NC(=O)[C@H](CCCCN)NC(=O)[C@H](Cc2c[nH]c3ccccc23)NC(=O)[C@H](C)NC1=O [Compound H5K] (HELM PEPTIDE1{[ac].D.C.A.W.K.L.G.E.L.V.W.C.T.[am]}$PEPTIDE1,PEPTIDE1,3:R3-13:R3$$$V2.0)",binding to the Fc region of trastuzumab compared to Fc-III (in words),Fc region of trastuzumab,moderate binding efficiency
"CC(=O)N[C@@H](CC(=O)O)C(=O)N[C@H]1CSSC[C@@H](C(=O)N[C@H](C(N)=O)[C@@H](C)O)NC(=O)[C@H](Cc2c[nH]c3ccccc23)NC(=O)[C@H](C(C)C)NC(=O)[C@H](CC(C)C)NC(=O)[C@H](CCC(=O)O)NC(=O)CNC(=O)[C@H](CCCCN)NC(=O)[C@H](Cc2c[nH]cn2)NC(=O)[C@H](Cc2c[nH]c3ccccc23)NC(=O)[C@H](C)NC1=O [Compound L6K] (HELM PEPTIDE1{[ac].D.C.A.W.H.K.G.E.L.V.W.C.T.[am]}$PEPTIDE1,PEPTIDE1,3:R3-13:R3$$$V2.0)",binding to the Fc region of trastuzumab compared to Fc-III (in words),Fc region of trastuzumab,moderate binding efficiency
"CC(=O)N[C@@H](CC(=O)O)C(=O)N[C@H]1CSSC[C@@H](C(=O)N[C@H](C(N)=O)[C@@H](C)O)NC(=O)[C@H](Cc2c[nH]c3ccccc23)NC(=O)[C@H](CCCCN)NC(=O)[C@H](CC(C)C)NC(=O)[C@H](CCC(=O)O)NC(=O)CNC(=O)[C@H](CC(C)C)NC(=O)[C@H](Cc2c[nH]cn2)NC(=O)[C@H](Cc2c[nH]c3ccccc23)NC(=O)[C@H](C)NC1=O [Compound V10K] (HELM PEPTIDE1{[ac].D.C.A.W.H.L.G.E.L.K.W.C.T.[am]}$PEPTIDE1,PEPTIDE1,3:R3-13:R3$$$V2.0)",binding to the Fc region of trastuzumab compared to Fc-III (in words),Fc region of trastuzumab,moderate binding efficiency
"CC(=O)N[C@@H](CC(=O)O)C(=O)N[C@H]1CSSC[C@@H](C(=O)N[C@H](C(N)=O)[C@@H](C)O)NC(=O)[C@H](Cc2c[nH]c3ccccc23)NC(=O)[C@H](C(C)C)NC(=O)[C@H](CC(C)C)NC(=O)[C@H](CCC(=O)O)NC(=O)CNC(=O)[C@H](CC(C)C)NC(=O)[C@H](Cc2c[nH]cn2)NC(=O)[C@H](CCCCN)NC(=O)[C@H](C)NC1=O [Compound W4K] (HELM PEPTIDE1{[ac].D.C.A.K.H.L.G.E.L.V.W.C.T.[am]}$PEPTIDE1,PEPTIDE1,3:R3-13:R3$$$V2.0)",binding to the Fc region of trastuzumab compared to Fc-III (in words),Fc region of trastuzumab,significant impact on peptide binding
"CC(=O)N[C@@H](CC(=O)O)C(=O)N[C@H]1CSSC[C@@H](C(=O)N[C@H](C(N)=O)[C@@H](C)O)NC(=O)[C@H](CCCCN)NC(=O)[C@H](C(C)C)NC(=O)[C@H](CC(C)C)NC(=O)[C@H](CCC(=O)O)NC(=O)CNC(=O)[C@H](CC(C)C)NC(=O)[C@H](Cc2c[nH]cn2)NC(=O)[C@H](Cc2c[nH]c3ccccc23)NC(=O)[C@H](C)NC1=O [Compound W11K] (HELM PEPTIDE1{[ac].D.C.A.W.H.L.G.E.L.V.K.C.T.[am]}$PEPTIDE1,PEPTIDE1,3:R3-13:R3$$$V2.0)",binding to the Fc region of trastuzumab compared to Fc-III (in words),Fc region of trastuzumab,significant impact on peptide binding
